Data published in ChEMBL document CHEMBL2073901, “Enhancement of doxorubicin activity in multidrug-resistant cells by mefloquine” (Methods Find Exp Clin Pharmacol, 2000).

Experiments:
[1] = molecular target: T1, ATP-dependent translocase ABCB1 (Homo sapiens, UniProt P08183); assay: TP_TRANSPORTER: inhibition of Azidopine photoaffinity labelling (Azidopine: 0.1 uM, Mefloquine: 10 uM) in membranes from K562/DOX cells; assay type: functional, cell membranes, Membrane; conditions: k562/adr
[2] = molecular target: T1, ATP-dependent translocase ABCB1; assay: TP_TRANSPORTER: increase in Rhodamine 123 intracellular accumulation (R123: 10 uM, Mefloquine: 10 uM) in K562/DOX cells; assay type: functional, cell-based; conditions: k562/adr
[3] = molecular target: T1, ATP-dependent translocase ABCB1; assay: TP_TRANSPORTER: intracellular accumulation in K562 and K562/DXR cells; assay type: functional, cell-based

T1 sequence (P08183 whole entry): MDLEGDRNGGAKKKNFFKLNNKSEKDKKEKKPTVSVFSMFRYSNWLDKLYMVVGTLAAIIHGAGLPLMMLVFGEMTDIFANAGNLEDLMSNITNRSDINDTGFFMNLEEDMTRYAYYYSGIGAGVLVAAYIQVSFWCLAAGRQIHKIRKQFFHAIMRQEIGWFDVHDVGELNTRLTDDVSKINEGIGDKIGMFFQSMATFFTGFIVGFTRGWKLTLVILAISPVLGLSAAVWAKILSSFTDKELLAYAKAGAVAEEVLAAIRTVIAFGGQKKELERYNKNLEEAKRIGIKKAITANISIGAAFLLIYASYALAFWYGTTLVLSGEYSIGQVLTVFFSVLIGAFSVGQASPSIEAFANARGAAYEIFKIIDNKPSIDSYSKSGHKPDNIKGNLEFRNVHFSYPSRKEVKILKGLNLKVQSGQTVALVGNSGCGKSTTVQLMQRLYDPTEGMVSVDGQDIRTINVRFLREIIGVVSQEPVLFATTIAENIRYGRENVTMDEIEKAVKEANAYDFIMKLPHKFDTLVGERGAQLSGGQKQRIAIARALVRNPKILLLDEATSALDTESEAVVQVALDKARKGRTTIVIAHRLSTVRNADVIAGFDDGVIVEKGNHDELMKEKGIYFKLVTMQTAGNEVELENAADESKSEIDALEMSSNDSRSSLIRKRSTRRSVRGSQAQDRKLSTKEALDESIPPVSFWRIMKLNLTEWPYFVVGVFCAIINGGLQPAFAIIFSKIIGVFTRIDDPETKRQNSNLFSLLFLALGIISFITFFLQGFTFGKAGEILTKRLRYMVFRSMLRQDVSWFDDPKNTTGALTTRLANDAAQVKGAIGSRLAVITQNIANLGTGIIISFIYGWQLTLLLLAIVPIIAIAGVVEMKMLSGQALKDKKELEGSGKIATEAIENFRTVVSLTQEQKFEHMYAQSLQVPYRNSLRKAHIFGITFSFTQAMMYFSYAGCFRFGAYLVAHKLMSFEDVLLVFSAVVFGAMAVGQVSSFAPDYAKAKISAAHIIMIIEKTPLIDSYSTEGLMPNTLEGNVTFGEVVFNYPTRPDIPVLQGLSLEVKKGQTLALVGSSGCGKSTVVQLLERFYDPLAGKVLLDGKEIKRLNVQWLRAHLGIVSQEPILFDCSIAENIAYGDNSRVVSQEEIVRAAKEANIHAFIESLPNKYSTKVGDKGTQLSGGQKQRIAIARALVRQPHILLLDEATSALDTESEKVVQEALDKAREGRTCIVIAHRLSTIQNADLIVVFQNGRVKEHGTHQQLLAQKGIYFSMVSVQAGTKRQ

Structure (SMILES) | Activity [1] | Activity [2] | Activity [3]
OC(c1cc(C(F)(F)F)nc2c(C(F)(F)F)cccc12)C1CCCCN1 (stereo not drawn) [MEFLOQUINE] | inhibitor [+] | inhibitor [+] | –
COC(=O)c1ccccc1-c1c2ccc(=N)cc-2oc2cc(N)ccc12.Cl [RHODAMINE123] | – | – | substrate [+]
